The text below walks through data of US9527850B2, “Benzyl piperidine compounds as lysophosphatidic acid (LPA) receptor antagonist” (Merck Patent GmbH, priority 2011, dated 2016).

The target of the test is T1, LPA2 receptor (LPA2R) (Homo sapiens, UniProt Q9HBW0).
T1 construct: expressed in transfected cells; host or cells: U2OS
In words: LPA2R-Calciumflux assay (intracellular calcium mobilisation, FLIPR). Type of test: cell-based. Conditions: U2OS cells recombinant expressing LPA2R; inhibition of LPA-induced Ca-flux; 10 concentrations 30 uM to 1 nM, 1% DMSO. From the text: The assay detects intra cellular calcium which is generated by cells upon activation of the LPA2 receptor by its ligand LPA. This transient calcium mobilization can be monitored using a commercial calcium detection kit (e.g. from Molecular Devices). The main component of such a kit is a dye, which becomes fluorescent when calcium is present—a transient fluorescence signal after laddition of a ligand to a test well are the result. Readers like the FLIPR (Molecular Devices) can be used to monitor such transient “Ca-flux” signals.
The signals are calculated according to peak maximum minus base line.
The assay is performed in microplates (384 wells per plate).
LPA2R-Calciumflux Assay Protocol
The assay is run according to the following procedure: • 50 uL seed cells (10000 cells/well in DMEM buffer) • Incubate 24 h at 37° C., 10% CO2 • aspirate medium • 50 uL add calcium dye 1×HBSS/HEPES buffer • incubate 1 h at 37° C. (“loading”) • equilibrate 10 min at RT • 5 uL add compounds in HEPES buffer • shake 10 sec. at 1000 rpm • incubate 15 min at RT • 20 uL add LPA (in the FLIPR Tetra) in Krebs-buffer/BSA & measurement
The cells are seeded in DMEM buffer (DMEM, 10% FCS, 10 mM HEPES, 1% Pen/Strep).
Dye loading is done in HBSS/HEPES buffer (100 mL 10×HBSS+20 mL 1M HEPES+880 mL water, pH 7.4)
The LPA is added in Krebs/BSA buffer (120 mM NaCl, 5 mM KCl, 0.62 mM MgSO4, 1.8 mM CaCl2, 10 mM HEPES, 6 mM D(+)-Glucose, 0.2% BSA, pH 7.4).
The compounds are pre-diluted in HEPES buffer (20 mM, pH 7.4), whereby the final DMSO content in the assay is kept at 1%. The compounds are pre-diluted in order to generate dose response series on the microplates. The dose response series consist of 10 concentrations for each compound from 30 uM final to 1 nM final. From all compound wells the resulting signals are referred to control wells (located on each plate besides the compound wells) in terms of % activity.
From these % activity values—along with the corresponding compound concentrations—IC50 values are fitted for each compound using standard fitting programs such as Graphpad Prism. Here the method “log(inhibitor) vs. response—Variable slope” is used.
For orientation: A change in cytosolic calcium serves as a functional read-out for many receptors and channels.

T1 sequence (Q9HBW0 whole entry): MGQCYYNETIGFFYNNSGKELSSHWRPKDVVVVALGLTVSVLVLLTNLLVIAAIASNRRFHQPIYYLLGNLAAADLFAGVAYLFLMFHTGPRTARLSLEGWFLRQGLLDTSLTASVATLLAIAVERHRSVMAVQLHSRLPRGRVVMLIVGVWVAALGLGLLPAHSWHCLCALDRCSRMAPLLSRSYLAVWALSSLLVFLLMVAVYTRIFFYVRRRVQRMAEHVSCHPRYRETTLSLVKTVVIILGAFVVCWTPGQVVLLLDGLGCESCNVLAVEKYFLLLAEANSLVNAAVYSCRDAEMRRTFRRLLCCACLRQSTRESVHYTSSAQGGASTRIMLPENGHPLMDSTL

A word on the IC50: it is the concentration needed to halve the response being measured. Turning to `Cc1cc(C)c2cc(C3CCCCN3Cc3ccc(F)cc3)[nH]c2c1` (stereo not shown) [compound 69, 2-[1-(4-Fluoro-benzyl)-piperidin-2-yl]-4,6-dimethyl-1H-indole], the 50% inhibitory concentration (IC50) lay in the range of 500 to 5000 nM. The figure for `Fc1ccc2[nH]c(C3CCCCN3Cc3csc(Cl)n3)nc2c1` (stereo not shown) [compound 122, 2-[1-(2-Chloro-thiazol-4-ylmethyl)-piperidin-2-yl]-5-fluoro-1H-benzo-imidazole] is 500 to 5000 nM; for `CC1CCCC(c2cc3cc(F)ccc3[nH]2)N1Cc1ccccc1O` (stereo not shown) [compound 29, 2-[2-(5-Fluoro-1H-indol-2-yl)-6-methyl-piperidin-1-ylmethyl]-phenol] it is 500 to 5000 nM. Under `Cc1ccc(CN2CCCCC2c2nc3cc(Cl)cnc3[nH]2)cc1C` (stereo not shown) [compound 128, 6-Chloro-2-[1-(3,4-dimethyl-benzyl)-piperidin-2-yl]-3H-imidazo[4,5-b]pyridine] stands under 500 nM; under `Cc1ccc(CN2CCCC[C@@H]2c2cc3ccccc3[nH]2)cc1` [compound 143, 2-[(R)-1-(4-Methyl-benzyl)-piperidin-2-yl)-1H-indole], under 500 nM. The figure for `Cc1ccc(CN2CCCCC2c2nc3ccc(Cl)cc3[nH]2)cc1C(F)(F)F` (stereo not shown) [compound 90] is 500 to 5000 nM; for `N#Cc1ccc(CN2CCCCC2c2cc3ccccc3[nH]2)cc1` (stereo not shown) [compound 19, 4-[2-(1H-Indol-2-yl)-piperidin-1-ylmethyl]-benzonitrile] it is 5000 to 15000 nM. For the compound `COc1ccc(CN2CCC(C)CC2c2cc3ccccc3[nH]2)cc1` (stereo not shown) [compound 68, 2-[1-(4-Methoxy-benzyl)-4-methyl-piperidin-2-yl]-1H-indole], the IC50 was in the range of 500 to 5000 nM.

As for `FC(F)(F)c1cccc(CN2CCCCC2c2nc3ccc(Br)cc3[nH]2)c1` (stereo not shown) [compound 92], the half-inhibitory concentration (IC50) lay in the range of 500 to 5000 nM.

In the case of `CC1CCCC(c2cc3cc(F)ccc3[nH]2)N1Cc1cccnc1` (stereo not shown) [compound 41, 5-Fluoro-2-(6-methyl-1-pyridin-3-ylmethyl-piperidin-2-yl)-1H-indole], the half-maximal inhibitory concentration (IC50) was in the range of 500 to 5000 nM. The figure for `FC(F)(F)c1cccc(CN2CCCCC2c2cc3ccccc3[nH]2)c1` (stereo not shown) [compound 17] is 5000 to 15000 nM. Under `Cc1cccc(CN2CCCCC2c2nc3ccc(Br)cc3[nH]2)c1` (stereo not shown) [compound 95, 6-Bromo-2-[1-(3-methyl-benzyl)-piperidin-2-yl]-1H-benzo-imidazole] stands under 500 nM; under `Cc1ccc(CN2CCCCC2c2nc3cccc(C)c3[nH]2)cc1C` (stereo not shown) [compound 100, 2-[1-(3,4-Dimethyl-benzyl)-piperidin-2-yl]-7-methyl-1H-benzo-imidazole], under 500 nM; under `Fc1ccc(CCN2CCCCC2c2cc3cc(F)ccc3[nH]2)cc1` (stereo not shown) [compound 111, 5-Fluoro-2-{1-[2-(4-fluoro-phenyl)-ethyl]-piperidin-2-yl}-1H-indole], 500 to 5000 nM. The figure for `Fc1ccc(CN2CCCCC2c2cc3cc(F)ccc3[nH]2)c(F)c1` (stereo not shown) [compound 112, 2-[1-(2,4-Difluoro-benzyl)-piperidin-2-yl]-5-fluoro-1H-indole] is under 500 nM; for `COc1cccc(CN2CCC(C)CC2c2cc3cc(Cl)ccc3[nH]2)c1` (stereo not shown) [compound 74, 5-Chloro-2-[1-(3-methoxy-benzyl)-4-methyl-piperidin-2-yl]-1H-indole] it is 500 to 5000 nM. Take `Cc1cc2nc(C3CCCCN3Cc3ccc(C)c(C(F)(F)F)c3)[nH]c2cc1Cl` (stereo not shown) [compound 127]: the half-maximal inhibitory concentration (IC50) fell in the range of 500 to 5000 nM. The figure for `Cc1ccc(CN2CCC(C)CC2c2cc3cc(F)ccc3[nH]2)cc1C` (stereo not shown) [compound 87, 2-[1-(3,4-Dimethyl-benzyl)-4-methyl-piperidin-2-yl]-5-fluoro-1H-indole] is under 500 nM; for `CC1CCCC(c2cc3cc(F)ccc3[nH]2)N1Cc1ccc(F)cc1` (stereo not shown) [compound 36, 5-Fluoro-2-[1-(4-fluoro-benzyl)-6-methyl-piperidin-2-yl]-1H-indole] it is under 500 nM; for `Cc1ccc(CN2CCCC[C@@H]2c2nc3cc(Cl)cnc3[nH]2)cc1C` [compound 140, 6-Chloro-2-[(R)-1-(3,4-dimethyl-benzyl)-piperidin-2-yl]-3H-imidazo[4,5-b]pyridine] it is 500 to 5000 nM. In the case of `CC1CCC(c2cc3cc(F)ccc3[nH]2)N(Cc2ccc(F)cc2)C1` (stereo not shown) [compound 61, 5-Fluoro-2-[1-(4-fluoro-benzyl)-5-methyl-piperidin-2-yl]-1H-indole], the IC50 was in the range of 500 to 5000 nM. As to `COc1cc(CN2CCCCC2c2cc3cc(F)ccc3[nH]2)cc(OC)c1` (stereo not shown) [compound 55, 2-[1-(3,5-Dimethoxy-benzyl)-piperidin-2-yl]-5-fluoro-1H-indole], the IC50 lay within 500 to 5000 nM. Consider `CC1CCCC(c2cc3cc(F)ccc3[nH]2)N1Cc1cccc([N+](=O)[O-])c1` (stereo not shown) [compound 31, 5-Fluoro-2-[6-methyl-1-(3-nitro-benzyl)-piperidin-2-yl]-1H-indole], for which the IC50 lay within 500 to 5000 nM. Regarding `Fc1ccc2[nH]c(C3CCCCN3Cc3ccc(Cl)cc3Cl)cc2c1` (stereo not shown) [compound 59, 2-[1-(2,4-Dichloro-benzyl)-piperidin-2-yl]-5-fluoro-1H-indole], the concentration for half-maximal inhibition (IC50) was 5000 to 15000 nM. Under `Cc1ccc(CN2CCCCC2c2nc3cc(C)c(Cl)cc3[nH]2)cc1C` (stereo not shown) [compound 114, 6-Chloro-2-[1-(3,4-dimethyl-benzyl)-piperidin-2-yl]-5-methyl-1H-benzo-imidazole] stands under 500 nM; under `Fc1ccc2[nH]c(C3CCCCN3Cc3cccc(Cl)c3Cl)cc2c1` (stereo not shown) [compound 54, 2-[1-(2,3-Dichloro-benzyl)-piperidin-2-yl]-5-fluoro-1H-indole], 500 to 5000 nM; under `Cc1ccc(CN2CCCCC2c2cc3ccccc3o2)cc1C` (stereo not shown) [compound 50, 2-Benzofuran-2-yl-1-(3,4-dimethyl-benzyl)-piperidine], 500 to 5000 nM. The figure for `CC1CCCC(c2cc3cc(F)ccc3[nH]2)N1Cc1ccc(C#N)cc1` (stereo not shown) [compound 32, 4-[2-(5-Fluoro-1H-indol-2-yl)-6-methyl-piperidin-1-ylmethyl]-benzonitrile] is 500 to 5000 nM; for `Cc1ccc(CN2CCC(C)CC2c2cc3ccccc3[nH]2)cc1C` (stereo not shown) [compound 79, 2-[1-(3,4-Dimethyl-benzyl)-4-methyl-piperidin-2-yl]-1H-indole] it is 500 to 5000 nM; for `Fc1ccc2[nH]c(C3CCCCN3CCc3ccccc3)nc2c1` (stereo not shown) [compound 104, 5-Fluoro-2-(1-phenethyl-piperidin-2-yl)-1H-benzo-imidazole] it is 500 to 5000 nM. As for `COc1ccc(CN2CCCC(C)C2c2cc3c4c(ccc3[nH]2)CCC4)cc1` (stereo not shown) [compound 76, 2-[1-(4-Methoxy-benzyl)-3-methyl-piperidin-2-yl]-3,6,7,8-tetrahydro-cyclopenta [e]indole], the IC50 lay in the range of 5000 to 15000 nM. Under `Fc1ccc(CN2CCCC[C@@H]2c2cc3cc(F)ccc3[nH]2)cc1` [compound 136, 5-Fluoro-2-[(R)-1-(4-fluoro-benzyl)-piperidin-2-yl]-1H-indole] stands under 500 nM; under `Fc1ccc(CN2CCCCC2c2cc3ccccc3[nH]2)cc1` (stereo not shown) [compound 3, 2-[1-(4-Fluoro-benzyl)-piperidin-2-yl]-1H-indole], under 500 nM; under `CC1(C)CCC(C)(C)c2cc(CN3CCCCC3c3nc4ccc(Br)cc4[nH]3)ccc21` (stereo not shown) [compound 94, 6-Bromo-2-[1-(5,5,8,8-tetramethyl-5,6,7,8-tetrahydro-naphthalen-2-ylmethyl)-piperidin-2-yl]-1H-benzo-imidazole], 5000 to 15000 nM.
